Data reported in publication PMC2753751 (Bioorganic & medicinal chemistry letters, 2009).

Legend:
Pneumocystis carinii [1] = test: in vitro inhibition of Pneumocystis carinii; assay type: cell-based; conditions: ratio of cytotoxic A549 IC50 to P. carinii IC50
Pneumocystis carinii [2] = conditions: read-out: IC50 P. carinii; P. carinii obtained from rat lungs; ref [15]; cited from earlier work
[3] = test system: A549 human lung carcinoma cell line; test: cytotoxicity with A549 cell monolayers; assay type: cell-based
[4] = test system: Trypanosoma brucei rhodesiense KETRI 243; test: in vitro inhibition of Trypanosoma brucei rhodesiense; assay type: cell-based; conditions: T.b. rhodesiense KETRI 243 versus T.b. brucei LAB 110
Pneumocystis = conditions: immunosuppressed mouse, 20 mg/kg and 40 mg/kg doses; ref [1]; cited from earlier work

Molecule	IC50 (Pneumocystis carinii [2]) [µM]	cytotoxicity against the A549 cell line (in words) [3]	also measured
N,N′-bis[4-(aminoiminomethyl)phenyl] hexanediamide [Compound 4]	0.002	–	selectivity index for P. carinii (SIP.c) (Pneumocystis carinii [1]): 596,500; IC50 [3]: 1190 µM
N=C(N)c1ccc(OCCCCCOc2ccc(C(=N)N)cc2)cc1 [Pentamidine, reference compound]	0.5	–	–
N=C(N)c1ccc(NC(=O)CCCCC(=O)Nc2cccc(C(=N)N)c2)cc1 [Compound 8]	–	very low cytoxicity	–
N=C(N)c1ccc(NC(=O)CCCCCCCCC(=O)Nc2ccc(C(=N)N)cc2)cc1 [Compound 12]	–	very low cytoxicity	–
N=C(N)c1ccc(NC(=O)CCCCCCC(=O)Nc2ccc(C(=N)N)cc2)cc1 [Compound 10]	–	very low cytoxicity	–
N=C(N)c1ccc(NC(=O)CCCCCC(=O)Nc2ccc(C(=N)N)cc2)cc1 [Compound 9]	–	very low cytoxicity	–
N,N′-bis[4-(aminoiminomethyl)phenyl] pentanediamide, dihydrochloride salt [Compound 2]	0.003	very low cytoxicity	fold less active against the resistant strain [4]: about 11 fold; selectivity index for P. carinii (SIP.c) (Pneumocystis carinii [1]): 758,667; reductions in organism burden (Pneumocystis): > 1,000 fold
